Assay results: patent US12275731B2, “Azaindole inhibitors of wild-type and mutant forms of LRRK2” (DANA-FARBER CANCER INSTITUTE, INC., priority 2018, dated 2025)

Key:
Assay in all cases: KinomeScan profiling
Assay type in all cases: binding
[1] = target: T1, BRSK2 (Homo sapiens, UniProt Q8IWQ3); conditions: BRSK2, 1 μM; read-out: % control
T1 sequence (Q8IWQ3 1-736): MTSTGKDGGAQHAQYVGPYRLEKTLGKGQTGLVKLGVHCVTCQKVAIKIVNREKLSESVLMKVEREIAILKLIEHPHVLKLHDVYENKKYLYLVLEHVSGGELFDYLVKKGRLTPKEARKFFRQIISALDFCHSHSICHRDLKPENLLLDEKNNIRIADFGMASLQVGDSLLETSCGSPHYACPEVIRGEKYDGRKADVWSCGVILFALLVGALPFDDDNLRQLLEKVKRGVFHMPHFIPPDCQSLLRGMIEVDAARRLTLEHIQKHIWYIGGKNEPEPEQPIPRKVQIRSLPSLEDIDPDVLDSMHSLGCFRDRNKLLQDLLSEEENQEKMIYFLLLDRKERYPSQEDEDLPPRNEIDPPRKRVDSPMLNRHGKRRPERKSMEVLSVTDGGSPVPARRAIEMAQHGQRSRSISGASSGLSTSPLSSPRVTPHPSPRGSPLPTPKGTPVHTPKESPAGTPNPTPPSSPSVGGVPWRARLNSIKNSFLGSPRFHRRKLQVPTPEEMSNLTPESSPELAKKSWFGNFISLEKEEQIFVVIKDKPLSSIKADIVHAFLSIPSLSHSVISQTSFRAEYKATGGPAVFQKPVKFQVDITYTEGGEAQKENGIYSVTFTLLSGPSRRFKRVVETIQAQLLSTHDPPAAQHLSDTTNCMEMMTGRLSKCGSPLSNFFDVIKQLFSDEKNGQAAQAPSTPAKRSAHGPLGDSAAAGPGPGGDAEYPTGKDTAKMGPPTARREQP
Summary of the method: (§1)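 Percent-of-control values derive from RLU, calculated as (test − positive)/(negative − positive) × 100, where DMSO defines 100% and a positive control compound defines 0%. Each compound was tested at 1 μM in the 468-kinase panel; sub-35% readings indicate activity.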

[2] = target: DAPK3 (Homo sapiens, UniProt O43293); conditions: DAPK3, 1 μM; read-out: % control
Summary of the method: as §1

[3] = target: EGFR(L747-S752del, P753S) (Homo sapiens, UniProt P00533, DEL747-752/P753S); conditions: read-out: % control
Summary of the method: as §1

[4] = target: T2, EPHB2 (Homo sapiens, UniProt P29323); conditions: EPHB2, 1 μM; read-out: % control
T2 sequence (P29323 19-1055): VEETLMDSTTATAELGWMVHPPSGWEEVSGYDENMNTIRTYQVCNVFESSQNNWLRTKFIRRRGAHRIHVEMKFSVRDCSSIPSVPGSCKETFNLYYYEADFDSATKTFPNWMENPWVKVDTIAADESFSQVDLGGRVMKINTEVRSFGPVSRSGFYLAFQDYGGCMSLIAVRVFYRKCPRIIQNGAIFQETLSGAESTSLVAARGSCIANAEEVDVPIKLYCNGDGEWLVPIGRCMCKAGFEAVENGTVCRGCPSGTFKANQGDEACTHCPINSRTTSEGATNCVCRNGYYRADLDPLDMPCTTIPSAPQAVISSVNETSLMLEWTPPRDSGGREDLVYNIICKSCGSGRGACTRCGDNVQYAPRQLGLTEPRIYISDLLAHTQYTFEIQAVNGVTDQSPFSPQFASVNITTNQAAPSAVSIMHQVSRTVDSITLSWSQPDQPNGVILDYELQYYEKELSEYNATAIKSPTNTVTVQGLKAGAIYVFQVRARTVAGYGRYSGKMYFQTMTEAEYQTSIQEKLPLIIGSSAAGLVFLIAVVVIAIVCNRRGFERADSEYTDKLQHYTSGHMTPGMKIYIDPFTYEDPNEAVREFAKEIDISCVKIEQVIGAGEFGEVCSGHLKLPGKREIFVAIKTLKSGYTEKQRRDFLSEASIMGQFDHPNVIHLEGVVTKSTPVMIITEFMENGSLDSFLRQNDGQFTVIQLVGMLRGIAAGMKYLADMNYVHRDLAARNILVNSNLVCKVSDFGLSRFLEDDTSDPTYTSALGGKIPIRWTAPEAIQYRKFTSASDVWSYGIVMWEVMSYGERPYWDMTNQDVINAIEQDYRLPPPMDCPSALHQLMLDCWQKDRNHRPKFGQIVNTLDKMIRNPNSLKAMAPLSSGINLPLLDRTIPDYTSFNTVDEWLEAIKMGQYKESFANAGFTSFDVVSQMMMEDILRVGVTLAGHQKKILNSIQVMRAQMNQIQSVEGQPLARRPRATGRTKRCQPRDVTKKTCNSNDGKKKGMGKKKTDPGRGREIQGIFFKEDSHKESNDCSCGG
Summary of the method: as §1

[5] = target: MARK1 (Homo sapiens, UniProt Q9P0L2); conditions: MARK1, 1 μM; read-out: % control
Summary of the method: as §1

[6] = target: MYLK (Homo sapiens, UniProt Q15746); conditions: read-out: % control
Summary of the method: as §1

[7] = target: PAK2 (Homo sapiens, UniProt Q13177); conditions: PAK2, 1 μM; read-out: % control
Summary of the method: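 Compounds were screened at 1 μM in DMSO across a 468-kinase KinomeScan panel. Binding was expressed as % control, scaled between a positive control (0%) and DMSO (100%) using luminescence signal. A value under 35% counted as active.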

[8] = target: PFTK1 (Homo sapiens, UniProt O94921); conditions: PFTK1, 1 μM; read-out: % control
Summary of the method: as §1

[9] = target: T3, PIK3CB (Homo sapiens, UniProt P42338); conditions: read-out: % control
T3 construct: purchased KinomeScan® (panel service)
Summary of the method: as §1

[10] = target: T4, PIP5K1A (Homo sapiens, UniProt Q99755); conditions: read-out: % control
T4 construct: purchased KinomeScan® (panel service)
Summary of the method: as §1

[11] = target: PRKR (Homo sapiens, UniProt P19525); conditions: read-out: % control
Summary of the method: as §1

[12] = target: PRP4 (Homo sapiens, UniProt Q13523); conditions: PRP4, 1 μM; read-out: % control
Summary of the method: as §1

[13] = target: T5, SRMS (Homo sapiens, UniProt Q9H3Y6); conditions: read-out: % control
T5 construct: purchased KinomeScan® (panel service)
Summary of the method: as §1

[14] = target: ZAK (Homo sapiens, UniProt Q9NYL2); conditions: read-out: % control
Summary of the method: as §1

Sequence of MARK1 (Q9P0L2 whole entry): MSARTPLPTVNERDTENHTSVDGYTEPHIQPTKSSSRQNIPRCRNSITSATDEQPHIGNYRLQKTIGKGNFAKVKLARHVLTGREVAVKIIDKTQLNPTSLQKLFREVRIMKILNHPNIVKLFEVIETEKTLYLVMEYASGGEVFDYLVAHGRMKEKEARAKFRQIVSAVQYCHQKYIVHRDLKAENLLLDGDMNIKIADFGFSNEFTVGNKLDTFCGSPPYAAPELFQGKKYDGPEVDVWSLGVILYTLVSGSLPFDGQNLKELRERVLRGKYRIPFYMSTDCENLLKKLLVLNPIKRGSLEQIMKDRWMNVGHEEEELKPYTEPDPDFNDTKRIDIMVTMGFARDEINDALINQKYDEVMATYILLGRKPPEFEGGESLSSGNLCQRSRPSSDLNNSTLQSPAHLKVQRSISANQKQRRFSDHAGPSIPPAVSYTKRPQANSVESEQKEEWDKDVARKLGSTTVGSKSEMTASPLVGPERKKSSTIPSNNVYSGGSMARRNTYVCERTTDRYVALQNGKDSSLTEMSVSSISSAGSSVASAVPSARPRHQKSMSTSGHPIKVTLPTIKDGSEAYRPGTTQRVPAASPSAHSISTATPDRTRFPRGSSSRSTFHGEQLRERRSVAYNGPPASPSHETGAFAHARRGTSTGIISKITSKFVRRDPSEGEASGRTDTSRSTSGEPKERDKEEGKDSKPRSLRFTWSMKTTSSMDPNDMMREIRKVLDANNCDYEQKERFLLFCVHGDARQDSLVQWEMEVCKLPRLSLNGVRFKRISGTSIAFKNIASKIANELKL
Sequence of PAK2 (Q13177 whole entry): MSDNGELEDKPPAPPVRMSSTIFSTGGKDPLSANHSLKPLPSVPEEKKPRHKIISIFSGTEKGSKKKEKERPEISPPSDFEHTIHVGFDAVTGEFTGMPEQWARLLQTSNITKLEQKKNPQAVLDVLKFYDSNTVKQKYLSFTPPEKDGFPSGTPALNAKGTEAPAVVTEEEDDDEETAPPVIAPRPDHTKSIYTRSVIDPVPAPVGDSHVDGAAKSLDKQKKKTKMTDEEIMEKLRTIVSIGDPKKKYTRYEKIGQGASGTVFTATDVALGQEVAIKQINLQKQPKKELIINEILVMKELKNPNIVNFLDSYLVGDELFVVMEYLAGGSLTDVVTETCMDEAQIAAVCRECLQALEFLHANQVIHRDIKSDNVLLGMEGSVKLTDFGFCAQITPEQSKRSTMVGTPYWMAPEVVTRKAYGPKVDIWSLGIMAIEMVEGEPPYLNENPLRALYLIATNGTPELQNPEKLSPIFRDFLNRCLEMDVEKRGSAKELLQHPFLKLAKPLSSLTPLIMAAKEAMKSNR
T3 sequence (P42338 whole entry): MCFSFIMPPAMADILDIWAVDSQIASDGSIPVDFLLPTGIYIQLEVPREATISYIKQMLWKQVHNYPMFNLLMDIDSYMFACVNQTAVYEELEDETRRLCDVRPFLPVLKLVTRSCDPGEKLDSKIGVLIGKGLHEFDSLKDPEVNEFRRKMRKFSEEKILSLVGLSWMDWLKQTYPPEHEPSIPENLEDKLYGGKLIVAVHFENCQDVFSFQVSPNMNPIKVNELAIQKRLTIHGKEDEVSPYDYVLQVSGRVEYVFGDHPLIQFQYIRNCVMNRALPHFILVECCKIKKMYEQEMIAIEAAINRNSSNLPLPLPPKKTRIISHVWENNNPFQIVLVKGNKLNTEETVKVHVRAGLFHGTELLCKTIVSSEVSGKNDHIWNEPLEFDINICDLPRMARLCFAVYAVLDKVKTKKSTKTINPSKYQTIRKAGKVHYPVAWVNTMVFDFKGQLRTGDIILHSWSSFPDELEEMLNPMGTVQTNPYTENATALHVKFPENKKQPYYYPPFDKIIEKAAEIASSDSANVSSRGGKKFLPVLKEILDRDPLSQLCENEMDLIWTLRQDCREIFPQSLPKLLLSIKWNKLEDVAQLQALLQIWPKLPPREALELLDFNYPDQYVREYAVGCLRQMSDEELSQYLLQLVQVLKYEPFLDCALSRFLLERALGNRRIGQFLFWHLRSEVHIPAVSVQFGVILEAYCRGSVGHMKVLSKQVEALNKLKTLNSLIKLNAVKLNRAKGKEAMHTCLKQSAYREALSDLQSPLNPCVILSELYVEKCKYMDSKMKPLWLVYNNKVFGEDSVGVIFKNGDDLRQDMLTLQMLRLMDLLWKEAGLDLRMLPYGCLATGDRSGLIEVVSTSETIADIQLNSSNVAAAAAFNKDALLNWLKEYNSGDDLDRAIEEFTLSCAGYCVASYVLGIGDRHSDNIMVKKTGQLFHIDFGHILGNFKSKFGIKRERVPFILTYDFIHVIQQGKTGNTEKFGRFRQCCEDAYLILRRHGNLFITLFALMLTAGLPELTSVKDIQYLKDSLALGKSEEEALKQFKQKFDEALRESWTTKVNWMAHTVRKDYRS
T5 sequence (Q9H3Y6 whole entry): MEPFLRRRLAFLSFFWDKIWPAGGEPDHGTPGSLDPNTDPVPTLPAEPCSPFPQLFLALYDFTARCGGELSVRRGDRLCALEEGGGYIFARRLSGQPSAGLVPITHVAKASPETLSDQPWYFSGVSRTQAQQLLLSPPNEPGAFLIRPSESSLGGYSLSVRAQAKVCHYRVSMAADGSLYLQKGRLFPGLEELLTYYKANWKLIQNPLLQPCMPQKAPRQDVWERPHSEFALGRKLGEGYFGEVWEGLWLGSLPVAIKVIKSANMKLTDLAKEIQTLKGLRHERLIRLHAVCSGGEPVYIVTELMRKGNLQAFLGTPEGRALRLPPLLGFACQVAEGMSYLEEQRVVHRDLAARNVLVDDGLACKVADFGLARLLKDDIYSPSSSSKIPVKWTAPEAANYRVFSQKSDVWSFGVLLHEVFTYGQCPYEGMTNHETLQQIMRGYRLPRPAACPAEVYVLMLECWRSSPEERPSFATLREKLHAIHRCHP
Sequence of EGFR(L747-S752del, P753S) (P00533 with tags, fused parts or gaps DEL747-752/P753S): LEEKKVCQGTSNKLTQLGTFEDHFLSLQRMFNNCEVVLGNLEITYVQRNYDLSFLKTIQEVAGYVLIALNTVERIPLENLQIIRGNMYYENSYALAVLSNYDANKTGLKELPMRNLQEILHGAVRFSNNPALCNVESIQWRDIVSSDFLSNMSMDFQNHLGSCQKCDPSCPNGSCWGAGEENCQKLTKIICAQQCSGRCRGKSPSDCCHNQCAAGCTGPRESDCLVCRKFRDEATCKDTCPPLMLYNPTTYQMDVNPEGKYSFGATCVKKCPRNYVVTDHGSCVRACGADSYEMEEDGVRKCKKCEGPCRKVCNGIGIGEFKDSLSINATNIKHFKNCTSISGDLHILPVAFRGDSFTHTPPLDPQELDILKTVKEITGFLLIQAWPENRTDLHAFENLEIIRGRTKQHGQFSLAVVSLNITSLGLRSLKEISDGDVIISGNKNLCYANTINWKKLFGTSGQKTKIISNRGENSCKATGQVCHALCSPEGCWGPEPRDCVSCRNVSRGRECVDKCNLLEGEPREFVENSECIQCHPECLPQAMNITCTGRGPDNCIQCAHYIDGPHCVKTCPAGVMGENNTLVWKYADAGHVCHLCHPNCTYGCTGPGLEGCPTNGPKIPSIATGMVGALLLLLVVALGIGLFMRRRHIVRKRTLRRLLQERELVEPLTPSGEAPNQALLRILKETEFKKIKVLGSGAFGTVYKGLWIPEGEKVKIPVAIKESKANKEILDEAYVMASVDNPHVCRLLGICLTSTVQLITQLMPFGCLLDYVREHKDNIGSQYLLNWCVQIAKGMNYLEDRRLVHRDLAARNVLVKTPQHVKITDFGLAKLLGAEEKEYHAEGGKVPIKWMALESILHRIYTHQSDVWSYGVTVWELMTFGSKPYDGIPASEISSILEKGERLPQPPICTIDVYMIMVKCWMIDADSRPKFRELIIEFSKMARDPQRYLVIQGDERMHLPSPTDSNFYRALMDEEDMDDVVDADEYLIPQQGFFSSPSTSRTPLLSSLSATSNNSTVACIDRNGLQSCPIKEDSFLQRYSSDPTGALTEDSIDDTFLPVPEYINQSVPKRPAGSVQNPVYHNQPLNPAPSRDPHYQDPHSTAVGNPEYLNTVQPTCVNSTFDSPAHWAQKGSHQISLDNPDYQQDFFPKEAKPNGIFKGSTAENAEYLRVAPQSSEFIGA
Sequence of PRKR (P19525 whole entry): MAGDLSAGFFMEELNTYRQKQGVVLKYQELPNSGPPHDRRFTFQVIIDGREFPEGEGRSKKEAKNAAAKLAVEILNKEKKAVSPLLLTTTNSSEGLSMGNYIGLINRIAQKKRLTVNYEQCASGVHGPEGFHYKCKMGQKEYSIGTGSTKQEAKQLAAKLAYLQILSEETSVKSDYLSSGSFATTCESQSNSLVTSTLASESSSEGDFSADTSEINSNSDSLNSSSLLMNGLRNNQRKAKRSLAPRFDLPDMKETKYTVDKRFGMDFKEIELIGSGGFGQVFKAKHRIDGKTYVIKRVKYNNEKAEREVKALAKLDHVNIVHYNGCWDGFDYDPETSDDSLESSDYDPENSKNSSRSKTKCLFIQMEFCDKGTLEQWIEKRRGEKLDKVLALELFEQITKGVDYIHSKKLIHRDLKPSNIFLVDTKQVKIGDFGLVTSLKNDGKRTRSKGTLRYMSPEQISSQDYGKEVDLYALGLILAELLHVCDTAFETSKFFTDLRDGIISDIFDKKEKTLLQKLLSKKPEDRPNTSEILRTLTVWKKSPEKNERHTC
Sequence of DAPK3 (O43293 whole entry): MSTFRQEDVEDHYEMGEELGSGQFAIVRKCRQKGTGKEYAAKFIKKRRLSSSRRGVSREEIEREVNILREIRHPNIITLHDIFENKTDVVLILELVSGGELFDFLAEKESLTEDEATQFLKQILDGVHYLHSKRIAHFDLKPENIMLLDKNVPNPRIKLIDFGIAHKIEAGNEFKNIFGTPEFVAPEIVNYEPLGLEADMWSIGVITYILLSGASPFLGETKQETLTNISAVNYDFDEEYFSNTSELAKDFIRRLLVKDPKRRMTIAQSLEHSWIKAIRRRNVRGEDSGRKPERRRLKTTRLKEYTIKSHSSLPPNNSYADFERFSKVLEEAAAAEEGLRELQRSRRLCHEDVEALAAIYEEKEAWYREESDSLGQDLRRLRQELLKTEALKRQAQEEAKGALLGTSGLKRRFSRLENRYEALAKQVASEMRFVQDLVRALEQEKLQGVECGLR

| Compound | remaining binding at 1 µM [1] | remaining binding at 1 µM [2] | remaining binding at 1 µM [3] | remaining binding at 1 µM [4] | remaining binding at 1 µM [5] | remaining binding at 1 µM [6] | remaining binding at 1 µM [7] | remaining binding at 1 µM [8] | remaining binding at 1 µM [9] | remaining binding at 1 µM [10] | remaining binding at 1 µM [11] | remaining binding at 1 µM [12] | remaining binding at 1 µM [13] | remaining binding at 1 µM [14] |
| --- | --- | --- | --- | --- | --- | --- | --- | --- | --- | --- | --- | --- | --- | --- |
| O=C(c1ccc(-c2cnc3[nH]cc(Cl)c3c2NC2CCCC2)cc1)N1CCC(N2CCOCC2)CC1 [Compound 101, (4-(3-chloro-4-(cyclopentylamino)-1H-pyrrolo[2,3-b]pyridin-5-yl)phenyl)(4-morpholinopiperidin-1-yl)methanone] | 94% | 88% | 100% | 97% | 80% | 83% | 80% | 100% | 100% | 12% | 82% | 38% | 72% | 86% |
| CNc1c(-c2cnn([C@H]3CCN(C(C)=O)C[C@@H]3F)c2)cnc2[nH]cc(Cl)c12 [Compound 77, 1-((3S,4S)-4-(4-(3-chloro-4-(methylamino)-1H-pyrrolo[2,3-b]pyridin-5-yl)-1H-pyrazol-1-yl)-3-fluoropiperidin-1-yl)ethan-1-one] | 100% | 79% | 92% | 98% | 71% | 72% | 100% | 100% | 100% | 7.7% | 68% | 14% | 90% | 70% |
| CNc1c(-c2ccc(C(=O)N3CCC(N4CCOCC4)CC3)cc2)cnc2[nH]cc(Cl)c12 [Compound 96, (4-(3-chloro-4-(methylamino)-1H-pyrrolo[2,3-b]pyridin-5-yl)phenyl)(4-morpholinopiperidin-1-yl)methanone] | 95% | 96% | 77% | 97% | 72% | 85% | 96% | 100% | 100% | 16% | 70% | 47% | 100% | 75% |
